# Measurements: PubChem BioAssay AID248 (DTP/NCI, 2004)
# Where “and” joins values, the source holds several entries; their conditions need not be identical. Identical values can stand only once. Toxic doses and inconclusive results are not listed.
# System: L1210 leukemia ip in BDF1 mice, survival T/C
# Assay: NCI In Vivo Anticancer Drug Screen. Data for tumor model L1210 Leukemia (intraperitoneal) in B6D2F1 (BDF1) mice
# Settings: endpoint: mean survival time, higher = longer survival
# Outline: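 Survival endpoint. Drug-treated group vs vehicle group, expressed as T divided by C. Tumor passaged by transplantation.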
# [1] = dose: 50.0 mg/kg/injection, schedule: Q01DX009 (ip), vehicle: carboxymethylcellulose (CMC)
# [2] = dose: 100.0 mg/kg/injection, schedule: Q01DX009 (ip), vehicle: carboxymethylcellulose (CMC)
# [3] = dose: 200.0 mg/kg/injection, schedule: Q01DX009 (ip), vehicle: carboxymethylcellulose (CMC)
# [4] = dose: 100.0 mg/kg/injection, schedule: Q01DX001 (ip), vehicle: carboxymethylcellulose (CMC)
# [5] = dose: 100.0 mg/kg/injection, schedule: Q01DX009 (ip), vehicle: Klucel (hydroxypropylcellulose) (HPC)
# [6] = dose: 100.0 mg/kg/injection, schedule: Q04DX003 (ip), vehicle: Klucel (hydroxypropylcellulose) (HPC)
# [7] = dose: 200.0 mg/kg/injection, schedule: Q01DX001 (ip), vehicle: carboxymethylcellulose (CMC)
# [8] = dose: 200.0 mg/kg/injection, schedule: Q04DX003 (ip), vehicle: Klucel (hydroxypropylcellulose) (HPC)
# [9] = dose: 400.0 mg/kg/injection, schedule: Q01DX001 (ip), vehicle: carboxymethylcellulose (CMC)
# [10] = dose: 400.0 mg/kg/injection, schedule: Q01DX009 (ip), vehicle: Klucel (hydroxypropylcellulose) (HPC)
# [11] = dose: 400.0 mg/kg/injection, schedule: Q04DX003 (ip), vehicle: Klucel (hydroxypropylcellulose) (HPC)
# [12] = dose: 100.0 mg/kg/injection, schedule: Q04DX003 (ip), vehicle: saline with Tween-80
# [13] = dose: 200.0 mg/kg/injection, schedule: Q04DX003 (ip), vehicle: saline with Tween-80
# [14] = dose: 400.0 mg/kg/injection, schedule: Q04DX003 (ip), vehicle: saline with Tween-80
# [15] = dose: 100.0 mg/kg/injection, schedule: Q01DX001 (ip), vehicle: saline
# [16] = dose: 200.0 mg/kg/injection, schedule: Q01DX001 (ip), vehicle: saline
# [17] = dose: 400.0 mg/kg/injection, schedule: Q01DX001 (ip), vehicle: saline
# [18] = dose: 100.0 mg/kg/injection, schedule: Q01DX009 (ip), vehicle: saline with Tween-80
# [19] = dose: 200.0 mg/kg/injection, schedule: Q01DX009 (ip), vehicle: saline with Tween-80
# [20] = dose: 400.0 mg/kg/injection, schedule: Q01DX009 (ip), vehicle: saline with Tween-80
# [21] = dose: 100.0 mg/kg/injection, schedule: Q01DX009 (ip), vehicle: saline
# [22] = dose: 100.0 mg/kg/injection, schedule: Q04DX003 (ip), vehicle: saline
# [23] = dose: 200.0 mg/kg/injection, schedule: Q01DX009 (ip), vehicle: saline
# [24] = dose: 200.0 mg/kg/injection, schedule: Q04DX003 (ip), vehicle: saline
# [25] = dose: 400.0 mg/kg/injection, schedule: Q01DX009 (ip), vehicle: saline
# [26] = dose: 400.0 mg/kg/injection, schedule: Q04DX003 (ip), vehicle: saline
# [27] = dose: 100.0 mg/kg/injection, schedule: Q04DX002 (ip), vehicle: saline with Tween-80
# [28] = dose: 200.0 mg/kg/injection, schedule: Q04DX002 (ip), vehicle: saline with Tween-80
smiles,measurement,setting,value
CCCCOP(=O)(/C=C\c1ccccn1)OCCCC,T/C,[1],95 % of control and 97 % of control
same,T/C,"dose: 50.0 mg/kg/injection, schedule: Q04DX003 (ip), vehicle: carboxymethylcellulose (CMC)",96 % of control
same,T/C,[2],94 % of control and 101 % of control
same,T/C,"dose: 100.0 mg/kg/injection, schedule: Q04DX002 (ip), vehicle: carboxymethylcellulose (CMC)",100 % of control and 102 % of control
same,T/C,"dose: 100.0 mg/kg/injection, schedule: Q04DX003 (ip), vehicle: carboxymethylcellulose (CMC)",108 % of control
same,T/C,[3],102 % of control and 117 % of control
same,T/C,"dose: 200.0 mg/kg/injection, schedule: Q04DX002 (ip), vehicle: carboxymethylcellulose (CMC)",106 % of control and 91 % of control
same,T/C,"dose: 200.0 mg/kg/injection, schedule: Q04DX003 (ip), vehicle: carboxymethylcellulose (CMC)",102 % of control
CCOc1ccccc1NC1=C(OC)C(=O)C(Nc2ccccc2OCC)=C(OC)C1=O,T/C,"dose: 50.0 mg/kg/injection, schedule: Q01DX001 (ip), vehicle: carboxymethylcellulose (CMC)",97 % of control
same,T/C,[4],103 % of control
same,T/C,[5],95 % of control
same,T/C,[6],98 % of control
same,T/C,[7],101 % of control
same,T/C,[8],90 % of control
same,T/C,[9],113 % of control
same,T/C,[10],90 % of control
same,T/C,[11],101 % of control
CCCCCCCCCCCCCCCCCCCOc1ccc(OCCCCCCCC)cc1,T/C,[12],94 % of control
same,T/C,[13],92 % of control
same,T/C,[14],94 % of control
N#Cc1c(N)ncn1C1OC(CO)C(O)C1O (stereo not given),T/C,[15],96 % of control
same,T/C,[16],104 % of control
same,T/C,[17],109 % of control
C=CCC(O)CCC (stereo not given),T/C,[18],89 % of control
same,T/C,[12],97 % of control
same,T/C,[19],90 % of control
same,T/C,[13],100 % of control
same,T/C,[20],89 % of control
same,T/C,[14],100 % of control
CSc1cc(C)c(OC(=O)Nc2cc(C)ccc2C)c(C)c1,T/C,"dose: 25.0 mg/kg/injection, schedule: Q01DX009 (ip), vehicle: saline",98 % of control
same,T/C,"dose: 50.0 mg/kg/injection, schedule: Q01DX009 (ip), vehicle: saline",93 % of control
same,T/C,[21],91 % of control
same,T/C,[22],107 % of control
same,T/C,[23],91 % of control
same,T/C,[24],98 % of control
same,T/C,[25],106 % of control
same,T/C,[26],95 % of control
NC(=O)Nc1cc(NC(N)=O)cc([N+](=O)[O-])c1,T/C,[21],95 % of control
same,T/C,[22],110 % of control
same,T/C,[23],88 % of control
same,T/C,[24],104 % of control
same,T/C,[25],93 % of control
same,T/C,[26],110 % of control
CCOC(=O)C1Oc2ccccc2O1,T/C,[18],105 % of control
same,T/C,[27],113 % of control
same,T/C,[19],99 % of control
same,T/C,[28],100 % of control
same,T/C,[20],101 % of control
same,T/C,"dose: 400.0 mg/kg/injection, schedule: Q04DX002 (ip), vehicle: saline with Tween-80",97 % of control
CC(=O)c1c(O)cc(C)[nH]c1=O,T/C,[15],86 % of control
same,T/C,[16],89 % of control
same,T/C,[17],86 % of control
CCN(CC)P(=O)(N1CC1)N1CC1,T/C,"dose: 0.75 mg/kg/injection, schedule: Q01DX Z (ip), vehicle: saline",109 % of control
same,T/C,"dose: 1.15 mg/kg/injection, schedule: Q01DX Z (ip), vehicle: saline",121 % of control
same,T/C,"dose: 2.0 mg/kg/injection, schedule: Q01DX Z (ip), vehicle: saline",106 % of control
same,T/C,"dose: 2.6 mg/kg/injection, schedule: Q01DX Z (ip), vehicle: saline",124 % of control and 215 % of control
same,T/C,"dose: 4.0 mg/kg/injection, schedule: Q01DX Z (ip), vehicle: saline",151 % of control
same,T/C,"dose: 9.0 mg/kg/injection, schedule: Q01DX Z (ip), vehicle: saline",213 % of control
same,T/C,"dose: 14.0 mg/kg/injection, schedule: Q01DX Z (ip), vehicle: saline",88 % of control and 91 % of control
O=C1CCc2ccsc21,T/C,[27],97 % of control
same,T/C,[28],97 % of control
Cc1ccc(S(=O)(=O)NC(c2ccccc2)(c2ccccc2)c2ccc([N+](=O)[O-])cc2)cc1,T/C,[21],100 % of control
same,T/C,[23],103 % of control
same,T/C,[25],101 % of control
CCOC(=O)CCC(NC(=O)c1cccc(N(C)C=O)c1)C(=O)OCC (stereo not given),T/C,"dose: 50.0 mg/kg/injection, schedule: Q01DX009 (ip), vehicle: saline with Tween-80",100 % of control
same,T/C,[18],92 % of control
same,T/C,[19],93 % of control
CC(C)CN(C)N=Nc1ccc(C(=N)N)cc1,T/C,"dose: 5.0 mg/kg/injection, schedule: Q01DX001 (ip), vehicle: carboxymethylcellulose (CMC)",94 % of control
same,T/C,"dose: 10.0 mg/kg/injection, schedule: Q01DX001 (ip), vehicle: carboxymethylcellulose (CMC)",97 % of control
same,T/C,"dose: 20.0 mg/kg/injection, schedule: Q01DX001 (ip), vehicle: carboxymethylcellulose (CMC)",97 % of control
same,T/C,"dose: 40.0 mg/kg/injection, schedule: Q01DX001 (ip), vehicle: carboxymethylcellulose (CMC)",92 % of control
same,T/C,"dose: 80.0 mg/kg/injection, schedule: Q01DX001 (ip), vehicle: carboxymethylcellulose (CMC)",91 % of control
same,T/C,[4],105 % of control
CCOc1cccc(OCC)c1C,T/C,[6],97 % of control
same,T/C,[8],94 % of control
same,T/C,[11],101 % of control
CC(=O)c1ccc(N=Nc2c(N)nc(N)nc2N)cc1,T/C,[15],94 % of control
same,T/C,[16],94 % of control
same,T/C,[17],94 % of control
COc1ccc(C(=O)Nc2ccccc2)cc1N,T/C,[1],96 % of control
same,T/C,[2],103 % of control
same,T/C,[3],94 % of control
same,T/C,[9],120 % of control
same,T/C,"dose: 400.0 mg/kg/injection, schedule: Q01DX009 (ip), vehicle: carboxymethylcellulose (CMC)",100 % of control
same,T/C,"dose: 600.0 mg/kg/injection, schedule: Q01DX001 (ip), vehicle: carboxymethylcellulose (CMC)",114 % of control
same,T/C,"dose: 800.0 mg/kg/injection, schedule: Q01DX001 (ip), vehicle: carboxymethylcellulose (CMC)",118 % of control
same,T/C,"dose: 1000.0 mg/kg/injection, schedule: Q01DX001 (ip), vehicle: carboxymethylcellulose (CMC)",114 % of control
COc1ccc(OC)c(N=CC(=O)c2ccc(C)cc2)c1,T/C,"dose: 75.0 mg/kg/injection, schedule: Q04DX003 (ip), vehicle: Klucel (hydroxypropylcellulose) (HPC)",95 % of control
same,T/C,"dose: 150.0 mg/kg/injection, schedule: Q04DX003 (ip), vehicle: Klucel (hydroxypropylcellulose) (HPC)",94 % of control
same,T/C,"dose: 300.0 mg/kg/injection, schedule: Q04DX003 (ip), vehicle: Klucel (hydroxypropylcellulose) (HPC)",97 % of control
COc1ccc(/C(C#N)=C2\OC(=O)c3ccccc32)cc1OC,T/C,[4],89 % of control
same,T/C,[7],94 % of control
same,T/C,[9],89 % of control
COc1ccc(-c2oc3cc(OC)ccc3c(=O)c2O)cc1,T/C,"dose: 50.0 mg/kg/injection, schedule: Q01DX001 (ip), vehicle: saline",106 % of control
same,T/C,[15],98 % of control
same,T/C,[16],104 % of control
same,T/C,[17],98 % of control
COc1ccc(/C=C(\C#N)c2ccc(OC)cc2)cc1,T/C,[5],96 % of control
same,T/C,[6],98 % of control
same,T/C,"dose: 200.0 mg/kg/injection, schedule: Q01DX009 (ip), vehicle: Klucel (hydroxypropylcellulose) (HPC)",101 % of control
same,T/C,[8],91 % of control
same,T/C,[10],96 % of control
same,T/C,[11],93 % of control
CN1CCN(C(=O)CCCCCCCCC(Br)CBr)CC1 (stereo not given),T/C,"dose: 15.0 mg/kg/injection, schedule: Q01DX001 (ip), vehicle: saline",103 % of control
CN(C)C(=S)N(C(=S)N(C)C)c1ccc(Cl)cc1,T/C,[15],101 % of control
same,T/C,[16],92 % of control
same,T/C,[17],97 % of control
NC(=O)C1=C(N)c2ccccc2C1c1ccccc1 (stereo not given),T/C,[15],101 % of control
same,T/C,[16],97 % of control
same,T/C,[17],97 % of control
